Experimental data reported in patent publication US11613542B2, “Sulfonylureas and sulfonylthioureas as NLRP3 inhibitors” (Inflazome Limited, priority 2017, dated 2023).
Counter-ions that a name gives are not always drawn.

Columns and labels:
[1] = target: T1, NLRP3 (Homo sapiens, UniProt Q96P20); assay: Human whole blood IL1β release assay; format: cell-based; parameters: Human whole blood in Li-heparin tubes was obtained from healthy donors; from tissue; host or cells: human whole blood from healthy donors, LPS-primed, nigericin-stimulated
Experimental: Human Whole Blood IL1β Release Assay
For systemic delivery, the ability to inhibit NLRP3 when the compounds are present within the bloodstream is of great importance. For this reason, the NLRP3 inhibitory activity of a number of compounds in human whole blood was investigated in accordance with the following protocol.
Human whole blood in Li-heparin tubes was obtained from healthy donors from a volunteer donor panel. • 1. Plate out 80 μl of whole blood containing 1 μg/ml of LPS in 96-well, clear bottom cell culture plate (Corning #3585) • 2. Add 10 μl compound (8 points half-log dilution with 10 μM top dose) or vehicle (DMSO 0.1% FAC) to the appropriate wells • 3. Incubate for 3 hrs at 37° C., 5% CO2 • 4. Add 10 μl Nigericin (Sigma #N7143) (10 μM FAC) to all wells • 5. Incubate for 1 hr at 37° C., 5% CO2 • 6. At the end of the incubation period, spin plates at 300 xg for 5 mins to pellet cells and remove 20 μl of supernatant and add to 96-well v-bottom plates for IL-1β analysis (note: these plates containing the supernatants can be stored at −80° C. to be analysed at a later date) • 7. IL-1β was measured according to the manufacturer protocol (Perkin Elmer-AlphaLisa IL-1 Kit AL220F-5000) • 8. IC50 data is fitted to a non-linear regression equation (log inhibitor vs response-variable slope 4-parameters)

[2] = target: T1, NLRP3; assay: THP-1 cells pyroptosis assay; format: cell-based; parameters: Seed THP-1 cells (25,000 cells/well) containing 1.0 μg/ml LPS; host or cells: THP-1 cells, LPS-primed, nigericin-stimulated
Outline: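 THP-1 cells (25,000/well) in serum-free RPMI with 1.0 μg/ml LPS, treated with compound (8-point half-log dilution, 10 μM top, 0.1% DMSO), then nigericin 5 μM final. Viability read by resazurin (100 μM final, 1-2 h, 37° C) fluorescence Ex 560/Em 590 nm; IC50 from 4-parameter variable-slope fit.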

[3] = human whole blood, 1 μg/ml LPS, compound 3 hrs, nigericin 10 μM 1 hr, IL-1β AlphaLisa, read-out: HWB IC50
[4] = THP-1 cells, 1.0 μg/ml LPS, compound 3 hrs, nigericin 5 μM 1 hr, resazurin readout, read-out: THP IC50

T1 sequence (Q96P20 whole entry): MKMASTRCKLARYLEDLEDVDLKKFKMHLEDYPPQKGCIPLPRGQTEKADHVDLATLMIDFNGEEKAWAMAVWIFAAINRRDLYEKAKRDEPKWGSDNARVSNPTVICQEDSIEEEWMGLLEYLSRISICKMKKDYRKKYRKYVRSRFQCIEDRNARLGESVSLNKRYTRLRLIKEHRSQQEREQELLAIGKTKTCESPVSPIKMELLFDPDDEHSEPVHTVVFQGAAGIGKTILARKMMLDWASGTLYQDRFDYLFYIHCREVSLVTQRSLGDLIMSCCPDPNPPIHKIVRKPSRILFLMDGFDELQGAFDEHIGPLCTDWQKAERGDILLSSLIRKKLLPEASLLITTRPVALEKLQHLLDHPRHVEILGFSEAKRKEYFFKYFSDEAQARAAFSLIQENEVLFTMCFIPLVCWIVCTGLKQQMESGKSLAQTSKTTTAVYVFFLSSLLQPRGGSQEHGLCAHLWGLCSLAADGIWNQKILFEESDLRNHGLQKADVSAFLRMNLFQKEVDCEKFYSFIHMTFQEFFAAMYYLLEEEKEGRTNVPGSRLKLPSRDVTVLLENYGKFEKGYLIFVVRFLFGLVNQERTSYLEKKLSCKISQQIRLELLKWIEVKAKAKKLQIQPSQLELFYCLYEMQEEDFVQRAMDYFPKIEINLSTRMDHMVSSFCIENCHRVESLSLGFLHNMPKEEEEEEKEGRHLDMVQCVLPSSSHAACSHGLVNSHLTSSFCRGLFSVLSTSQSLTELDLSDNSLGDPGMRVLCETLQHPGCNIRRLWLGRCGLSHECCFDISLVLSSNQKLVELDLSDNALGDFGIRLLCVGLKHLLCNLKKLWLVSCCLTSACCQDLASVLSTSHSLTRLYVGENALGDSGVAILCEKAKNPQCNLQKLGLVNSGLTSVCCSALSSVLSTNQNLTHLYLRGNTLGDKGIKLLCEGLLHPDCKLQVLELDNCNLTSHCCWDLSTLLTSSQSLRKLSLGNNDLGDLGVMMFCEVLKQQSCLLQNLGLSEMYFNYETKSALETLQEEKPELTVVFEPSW

Question: With CCN(C)C(=O)c1cc(S(=O)(=O)NC(=O)Nc2c(C(C)C)cccc2C(C)C)nn1C [Example 156, 3-(N-((2,6-Diisopropylphenyl)carbamoyl)sulfamoyl)-N-ethyl-N,1-dimethyl-1H-pyrazole-5-carboxamide] as the compound, how does the IC50 [1, 3] read?
Answer: The IC50 was < 3200 nM.

Question: What about the IC50 [2, 4] of the same compound?
Answer: Its IC50 is < 2560 nM.

Question: Which results are given for CC(C)c1cccc(C(C)C)c1NC(=O)NS(=O)(=O)c1cc(C(=O)N(C)C(C)C)n(C)n1 [Example 158, 3-(N-((2,6-Diisopropylphenyl)carbamoyl)sulfamoyl)-N-isopropyl-N,1-dimethyl-1H-pyrazole-5-carboxamide]?
Answer: IC50 [1, 3]: < 800 nM; IC50 [2, 4]: < 640 nM

Question: How did the IC50 [1, 3] turn out when CC(C)N(C)C(=O)c1cc(S(=O)(=O)NC(=O)Nc2c3c(cc4c2CCC4)CCC3)nn1C [Example 164, 3-(N-((1,2,3,5,6,7-Hexahydro-s-indacen-4-yl)carbamoyl)sulfamoyl)-N-isopropyl-N,1-dimethyl-1H-pyrazole-5-carboxamide] was run?
Answer: The IC50 was < 3200 nM.

Question: And the IC50 [2, 4]?
Answer: Its IC50 is < 160 nM.

Question: For CCN(CC)C(=O)c1cc(S(=O)(=O)NC(=O)Nc2c3c(cc4c2CCC4)CCC3)nn1C [Example 165, N,N-diethyl-3-(N-((1,2,3,5,6,7-Hexahydro-s-indacen-4-yl)carbamoyl)sulfamoyl)-1-methyl-1H-pyrazole-5-carboxamide], which IC50 [1, 3] is on record?
Answer: Its IC50 is < 1600 nM.

Question: And the IC50 [2, 4]?
Answer: Its IC50 is < 160 nM.

Question: Which results are given for CN(C)Cc1c(S(=O)(=O)NC(=O)Nc2c3c(cc4c2CCC4)CCC3)ncn1C [Example 171, 5-((Dimethylamino)methyl)-N-((1,2,3,5,6,7-hexahydro-s-indacen-4-yl)carbamoyl)-1-methyl-1H-imidazole-4-sulfonamide]?
Answer: IC50 [1, 3]: < 1600 nM; IC50 [2, 4]: < 640 nM

Question: What does the source list for CC(C)c1cc(Cl)cc(C(C)C)c1NC(=O)NS(=O)(=O)c1cc(C(=O)N(C)CCO)n(C)n1 [Example 172, 3-(N-((4-Chloro-2,6-diisopropylphenyl)carbamoyl)sulfamoyl)-N-(2-hydroxyethyl)-N,1-dimethyl-1H-pyrazole-5-carboxamide]?
Answer: IC50 [1]: < 1600 nM; IC50 [2]: < 160 nM

Question: COc1cc(-c2ccc3c(c2NC(=O)NS(=O)(=O)c2ccn(C(C)(C)CN(C)C)n2)CCC3)ccn1 [Example 178, 1-(1-(Dimethylamino)-2-methylpropan-2-yl)-N-((5-(2-methoxypyridin-4-yl)-2,3-dihydro-1H-inden-4-yl)carbamoyl)-1H-pyrazole-3-sulfonamide] was tested. Which IC50 [1, 3] did it give?
Answer: The IC50 was < 400 nM.

Question: And the IC50 [2, 4]?
Answer: The IC50 was < 40 nM.

Question: With CN(C)CCn1ccc(S(=O)(=O)NC(=O)Nc2c3c(cc4c2CCC4)CC=C3)n1 [Example 181, 1-(2-(Dimethylamino)ethyl)-N-((1,2,3,7-tetrahydro-s-indacen-4-yl)carbamoyl)-1H-pyrazole-3-sulfonamide, potassium salt] as the compound, how does the IC50 [1, 3] read?
Answer: The IC50 was < 800 nM.

Question: And the IC50 [2, 4]?
Answer: The IC50 was < 160 nM.

Question: Which IC50 [1, 3] does the source give for CN(C)CC(C)(C)n1cc(S(=O)(=O)NC(=O)Nc2c3c(cc4c2CCC4)CCC3)cn1 [Example 183, 1-(1-(Dimethylamino)-2-methylpropan-2-yl)-N-((1,2,3,5,6,7-hexahydro-s-indacen-4-yl)carbamoyl)-1H-pyrazole-4-sulfonamide] here?
Answer: The IC50 was < 1600 nM.

Question: What about the IC50 [2, 4] of the same compound?
Answer: Its IC50 is < 160 nM.

Question: What does the source list for CC(C)(C#N)n1ccc(S(=O)(=O)NC(=O)Nc2c(-c3ccnc(OC(F)F)c3)ccc3c2CCO3)n1 [Example 189, 1-(2-Cyanopropan-2-yl)-N-((5-(2-(difluoromethoxy)pyridin-4-yl)-2,3-dihydrobenzofuran-4-yl)carbamoyl)-1H-pyrazole-3-sulfonamide]?
Answer: IC50 [1, 3]: < 400 nM; IC50 [2, 4]: < 160 nM

Question: COc1cc(-c2ccc3c(c2NC(=O)NS(=O)(=O)c2ccn(C(C)(C)C#N)n2)CCO3)ccn1 [Example 190, 1-(2-Cyanopropan-2-yl)-N-((5-(2-methoxypyridin-4-yl)-2,3-dihydrobenzofuran-4-yl)carbamoyl)-1H-pyrazole-3-sulfonamide] was tested. Which IC50 [1, 3] did it give?
Answer: Its IC50 is < 400 nM.

Question: What about the IC50 [2, 4] of the same compound?
Answer: Its IC50 is < 160 nM.

Question: For CNCC(C)(C)n1ccc(S(=O)(=O)NC(=O)Nc2c(-c3ccnc(OC)c3)ccc3c2CCC3)n1 [Example 191, N-((5-(2-Methoxypyridin-4-yl)-2,3-dihydro-1H-inden-4-yl)carbamoyl)-1-(2-methyl-1-(methylamino)propan-2-yl)-1H-pyrazole-3-sulfonamide, sodium salt], which IC50 [1, 3] is on record?
Answer: The IC50 was < 400 nM.

Question: What about the IC50 [2, 4] of the same compound?
Answer: The IC50 was < 40 nM.

Question: With CN(C)CC(C)(C)n1ccc(S(=O)(=O)NC(=O)Nc2c(-c3ccnc(OC4CC4)c3)ccc3c2CCO3)n1 [Example 192, N-((5-(2-Cyclopropoxypyridin-4-yl)-2,3-dihydrobenzofuran-4-yl)carbamoyl)-1-(1-(dimethylamino)-2-methylpropan-2-yl)-1H-pyrazole-3-sulfonamide, sodium salt] as the compound, how does the IC50 [1, 3] read?
Answer: Its IC50 is < 400 nM.

Question: And the IC50 [2, 4]?
Answer: Its IC50 is < 160 nM.

Question: COc1cc(-c2ccc3c(c2NC(=O)NS(=O)(=O)c2ccn(C4CCN(C)C4)n2)CCC3)ccn1 (stereo not shown) [Example 193, N-((5-(2-Methoxypyridin-4-yl)-2,3-dihydro-1H-inden-4-yl)carbamoyl)-1-(1-methylpyrrolidin-3-yl)-1H-pyrazole-3-sulfonamide, sodium salt] was tested. Which IC50 [1, 3] did it give?
Answer: Its IC50 is < 400 nM.

Question: What about the IC50 [2, 4] of the same compound?
Answer: The IC50 was < 40 nM.

Question: CN(C)CC(C)(C)n1ccc(S(=O)(=O)NC(=O)Nc2c(-c3ccnc(OC4CC4)c3)ccc3c2CCC3)n1 [Example 194, N-((5-(2-Cyclopropoxypyridin-4-yl)-2,3-dihydro-1H-inden-4-yl)carbamoyl)-1-(1-(dimethylamino)-2-methylpropan-2-yl)-1H-pyrazole-3-sulfonamide, sodium salt] was tested. Which IC50 [1, 3] did it give?
Answer: Its IC50 is < 400 nM.

Question: And the IC50 [2, 4]?
Answer: The IC50 was < 40 nM.

Question: COc1cc(-c2ccc3c(c2NC(=O)NS(=O)(=O)c2ccn(C(C)(C)C#N)n2)CCC3)ccn1 [Example 195, 1-(2-Cyanopropan-2-yl)-N-((5-(2-methoxypyridin-4-yl)-2,3-dihydro-1H-inden-4-yl)carbamoyl)-1H-pyrazole-3-sulfonamide, sodium salt] was tested. Which IC50 [1, 3] did it give?
Answer: The IC50 was < 400 nM.

Question: And the IC50 [2, 4]?
Answer: Its IC50 is < 40 nM.

Question: For CN(C)CC(C)(C)n1ccc(S(=O)(=O)NC(=O)Nc2c(-c3ccnc(C#N)c3)ccc3c2CCC3)n1 [Example 196, N-((5-(2-Cyanopyridin-4-yl)-2,3-dihydro-1H-inden-4-yl)carbamoyl)-1-(1-(dimethylamino)-2-methylpropan-2-yl)-1H-pyrazole-3-sulfonamide], which IC50 [1, 3] is on record?
Answer: The IC50 was < 400 nM.

Question: And the IC50 [2, 4]?
Answer: The IC50 was < 40 nM.

Question: Which results are given for CN(C)CC(C)(C)n1ccc(S(=O)(=O)NC(=O)Nc2c(-c3cccnc3)ccc3c2CCC3)n1 [Example 197, 1-(1-(Dimethylamino)-2-methylpropan-2-yl)-N-((5-(pyridin-3-yl)-2,3-dihydro-1H-inden-4-yl)carbamoyl)-1H-pyrazole-3-sulfonamide]?
Answer: IC50 [1, 3]: < 400 nM; IC50 [2, 4]: < 640 nM

Question: C[C@H](CN(C)C)n1ccc(S(=O)(=O)NC(=O)Nc2c3c(cc4c2CCC4)CCC3)n1 [Example 198, (R)-1-(1-(Dimethylamino)propan-2-yl)-N-((1,2,3,5,6,7-hexahydro-s-indacen-4-yl)carbamoyl)-1H-pyrazole-3-sulfonamide] was tested. Which IC50 [1, 3] did it give?
Answer: The IC50 was < 800 nM.

Question: And the IC50 [2, 4]?
Answer: Its IC50 is < 640 nM.

Question: Which results are given for CN(C)CCn1ncc(S(=O)(=O)NC(=O)Nc2c3c(cc4c2CCC4)CCC3)n1 [Example 199, 2-(2-(Dimethylamino)ethyl)-N-((1,2,3,5,6,7-hexahydro-s-indacen-4-yl)carbamoyl)-2H-1,2,3-triazole-4-sulfonamide]?
Answer: IC50 [1, 3]: < 1600 nM; IC50 [2, 4]: < 640 nM

Question: How did the IC50 [1, 3] turn out when CN(C)CC1(n2ccc(S(=O)(=O)NC(=O)Nc3c4c(cc5c3CCC5)CCC4)n2)CC1 [Example 202, 1-(1-((Dimethylamino)methyl)cyclopropyl)-N-((1,2,3,5,6,7-hexahydro-s-indacen-4-yl)carbamoyl)-1H-pyrazole-3-sulfonamide] was run?
Answer: Its IC50 is < 400 nM.

Question: What about the IC50 [2, 4] of the same compound?
Answer: Its IC50 is < 160 nM.

Question: Which IC50 [1, 3] does the source give for CNCC(C)(C)n1ccc(S(=O)(=O)NC(=O)Nc2c3c(cc4c2CCC4)CCC3)n1 [Example 204, N-((1,2,3,5,6,7-Hexahydro-s-indacen-4-yl)carbamoyl)-1-(2-methyl-1-(methylamino)propan-2-yl)-1H-pyrazole-3-sulfonamide, sodium salt] here?
Answer: Its IC50 is < 800 nM.

Question: And the IC50 [2, 4]?
Answer: The IC50 was < 160 nM.

Question: Which results are given for CN1CCC(n2ccc(S(=O)(=O)NC(=O)Nc3c4c(cc5c3CCC5)CCC4)n2)C1 (stereo not shown) [Example 205, N-((1,2,3,5,6,7-Hexahydro-s-indacen-4-yl)carbamoyl)-1-(1-methylpyrrolidin-3-yl)-1H-pyrazole-3-sulfonamide, sodium salt]?
Answer: IC50 [1, 3]: < 1600 nM; IC50 [2, 4]: < 40 nM
